Where a name gives a salt, the structure may show the parent alone.
Columns and labels:
[1] = target: T1, human dopamine D2A receptors (Homo sapiens, UniProt P14416); test: D2 binding test (125I-spiperone, HEK-293 cells); conditions: selectivity versus D2 receptor, Ki(D2)/Ki(D3)
T1 construct: expressed in transfected cells; host or cells: HEK-293 cells
Protocol: All the media contained 100 units of penicillin […] and 100 μg/ml of streptomycin/ml. The cells were maintained at 37° C. in a moist atmosphere containing 5% CO2.
The cells were prepared for the binding studies by trypsinizing them (0.05% solution of trypsin) at room temperature for 3-5 minutes. After that, the cells were centrifuged at 250 g for 10 minutes and treated with lysis buffer (5 mM Tris-HCl, 10% glycerol, pH 7.4) at 4° C. for 30 minutes. After centrifuging at 250 g for 10 minutes, the residue was stored at −20° C. until used.
Low affinity state dopamine D2 receptor using ^125I-spiperone (81 TBq/mmol, Du Pont de Nemours, Dreieich)
The test mixtures (1 ml) consisted of 1×10^5 cells in incubation buffer (50 mM Tris, 120 mM NaCl, 5 mM KCl, 2 mM MgCl2 and 2 mM CaCl2, pH 7.4 with HCl) and […] ^125I-spiperone (total binding) or additionally 1 μM haloperidol (nonspecific binding) or test substance.
After the test mixtures had been incubated at 25° C. for 60 minutes, they were filtered through GM/B glass filters (Whatman, England) on a Skatron cell harvester (from Zinsser, Frankfurt), and the filters were washed with ice-cold 50 mM Tris-HCl buffer, pH 7.4. The radioactivity which had collected on the filters was quantified using a Packard 2200 CA liquid scintillation counter.
The results were evaluated as described in a).
The Ki values were determined by way of nonlinear regression analysis using the LIGAND program or by converting the IC50 values using the Cheng and Prusoff formula.

[2] = target: T2, human D3-receptor (Homo sapiens, UniProt P35462); test: D3 binding test (125iodosulpiride, membranes of CCL 1,3 mouse fibroblasts); conditions: negative logarithm of the affinity constant for the D3 receptor; read-out: pKi (D3) (converted)
T2 construct: host or cells: CCL 1,3 mouse fibroblasts
Protocol: Cloned human D3-receptor-expressing CCL 1,3 mouse fibroblasts, obtainable from Res. Biochemicals Internat. One Strathmore Rd., Natick, Mass. 01760-2418 USA, were used for the binding studies.
The D3-expressing cells were multiplied in RPMI-1640 containing 10% fetal calf serum (GIBCO No. 041-32400 N); 100 U of penicillin/ml and 0.2% streptomycin (GIBO BRL, Gaithersburg, Md., USA). After 48 h, the cells were washed with PBS and incubated for 5 min with 0.05% trypsin-containing PBS. After that, the solution was neutralized with medium and the cells were collected by centrifuging at 300 g. In order to lyse the cells, the pellet was washed briefly with lysis buffer (5 mM Tris-HCl, pH 7.4, containing 10% glycerol) and after that incubated, at 4° C. for 30 min, at a concentration of 10^7 cells/ml of lysis buffer. The cells were centrifuged at 200 g for 10 min and the pellet was stored in liquid nitrogen.
For the D3-receptor binding test, the membranes were suspended in incubation buffer (50 mM Tris-HCl, pH 7.4, containing 120 mM NaCl, 5 mM KCl, 2 mM CaCl2, 2 mM MgCl2, 10 μM quinolinol, 0.1% ascorbic acid and 0.1% BSA), at a concentration of approx. 10^6 cells/250 μl of test mixture, and incubated at 30° C. with 0.1 nM ^125iodosulpiride in the presence and absence of the test substance. The nonspecific binding was determined using 10^−6 M spiperone.
After 60 min, the free radioligand and the bound radioligand were separated by filtering through GF/B glass fiber filters (Whatman, England) on a Skatron cell harvester (Skatron, Lier, Norway), and the filters were washed with ice-cold Tris-HCl buffer, pH 7.4. The radioactivity which had collected on the filters was quantified using a Packard 2200 CA liquid scintillation counter.
The Ki values were determined by means of nonlinear regression analysis using the LIGAND program.

T2 sequence (P35462 whole entry): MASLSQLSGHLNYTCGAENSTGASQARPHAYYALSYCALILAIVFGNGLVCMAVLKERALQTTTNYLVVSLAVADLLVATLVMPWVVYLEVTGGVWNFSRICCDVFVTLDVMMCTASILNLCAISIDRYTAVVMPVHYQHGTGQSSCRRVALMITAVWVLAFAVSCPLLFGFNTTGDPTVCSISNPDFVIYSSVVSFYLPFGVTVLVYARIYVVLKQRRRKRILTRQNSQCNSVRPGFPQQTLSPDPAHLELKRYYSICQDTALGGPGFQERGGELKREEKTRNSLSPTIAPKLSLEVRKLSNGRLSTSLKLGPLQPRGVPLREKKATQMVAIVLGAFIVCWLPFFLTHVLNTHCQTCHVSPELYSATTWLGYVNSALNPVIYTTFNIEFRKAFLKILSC
T1 sequence (P14416 whole entry): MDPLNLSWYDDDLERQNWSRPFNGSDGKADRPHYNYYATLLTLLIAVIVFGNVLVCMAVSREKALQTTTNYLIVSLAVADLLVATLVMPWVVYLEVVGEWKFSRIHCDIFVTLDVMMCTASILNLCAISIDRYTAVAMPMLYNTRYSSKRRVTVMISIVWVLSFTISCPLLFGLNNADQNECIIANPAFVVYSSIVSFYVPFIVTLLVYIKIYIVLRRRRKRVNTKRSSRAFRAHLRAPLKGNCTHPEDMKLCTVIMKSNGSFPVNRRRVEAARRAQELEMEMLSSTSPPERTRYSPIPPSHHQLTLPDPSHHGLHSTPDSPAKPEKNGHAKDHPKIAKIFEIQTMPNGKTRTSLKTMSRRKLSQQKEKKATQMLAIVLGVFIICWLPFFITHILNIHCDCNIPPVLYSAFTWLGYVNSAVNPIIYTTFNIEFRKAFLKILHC

Compound | melting point [°C] | Selectivity [1] | Ki [2] [nM]
Cl.Cl.Cn1c(SCCCN2CCc3ccccc3C2)nnc1-c1cccnc1 | 87 to 89 |  | 
COC(=O)c1ccc2c(c1)CN(CCCSc1nnc(-c3ccccc3)n1C)CC2.O=C(O)C(=O)O | 160 to 163 |  | 
Cl.Cn1c(CCCCN2CCc3ccc(C#N)cc3C2)nnc1-c1ccccc1 | 175 |  | 
Cl.Cn1c(SCCCN2CCc3cc(C(F)(F)F)ccc3C2)nnc1-c1ccsc1 | 184 to 185 |  | 
CCN(CC)Cc1ccc2c(c1)CN(CCCSc1nnc(-c3ccccc3)n1C)CC2.Cl.Cl | 75 |  | 
Cl.Cn1c(SCCCN2CCc3ccc(C(F)(F)F)cc3C2)nnc1-c1ccccc1 | 205 to 207 |  | 
CCN(CC)CCOc1cccc2c1CCN(CCCSc1nnc(-c3ccccc3)n1C)C2.Cl.Cl | 110 to 112 |  | 
C=C(CSc1nnc(-c2ccccc2)n1C)CN1CCc2ccc([N+](=O)[O-])cc2C1.Cl | 146 to 150 |  | 
Cn1c(SCCCN2CCc3ccc(S(=O)(=O)NCc4ccccc4)cc3C2)nnc1-c1cccnc1 (as salt: HCl) [Example 10, N-Benzyl-2-{3-[(4-methyl-5-pyridin-3-yl-4H-1,2,4-triazol-3-yl)-sulfanyl]propyl}-1,2,3,4-tetrahydroisoquinoline-7-sulfonamide] | 81 to 84 |  | 
COc1ccc2c(c1)CCN(CCCSc1nnc(-c3ccc[nH]3)n1C)C2 [Example 2, 6-Methoxy-2-{3-[(4-methyl-5-pyrrol-2-yl-4H-1,2,4-triazol-3-yl)-sulfanyl]propyl}-1,2,3,4-tetrahydroisoquinoline] | 179 to 181 |  | 
COc1ccc2c(c1)CCN(CCCSc1nnc(-c3ccccc3)n1C)C2 [Example 3, 2-{3-[(4-Methyl-5-phenyl-4H-1,2,4-triazol-3-yl)sulfanyl]propyl}-6-methoxy-1,2,3,4-tetrahydroisoquinoline] |  | 78 | 9.55
Cn1c(SCCCN2CCc3ccc(S(=O)(=O)N4CCCCC4)cc3C2)nnc1-c1ccccc1 [Example 4, 2-{3-[(4-Methyl-5-phenyl-4H-1,2,4-triazol-3-yl)sulfanyl]propyl}-7-(piperidin-1-ylsulfonyl)-1,2,3,4-tetrahydroisoquinoline] | 105 to 108 | 67 | 11
Cn1c(SCCCN2CCc3ccc(C#N)cc3C2)nnc1-c1ccccc1 [Example 7, 2-{3-[(4-Methyl-5-phenyl-4H-1,2,4-triazol-3-yl)sulfanyl]propyl}-1,2,3,4-tetrahydroisoquinoline-7-carbonitrile] | 116 to 118 | 81 | 4.27
Cc1ncsc1-c1nnc(SCCCN2CCc3ccc(S(=O)(=O)NCc4ccccc4)cc3C2)n1C [Example 9, N-Benzyl-2-(3-{[4-methyl-5-(4-methyl-1,3-thiazol-5-yl)-4H-1,2,4-triazol-3-yl]sulfanyl}propyl)-1,2,3,4-tetrahydroisoquinoline-7-sulfonamide] | 67 to 70 |  | 

Other lines, results leading:

melting point [°C] | Selectivity [1] | Ki [2] [nM] | Compound
90 |  |  | Cn1c(SCCCN2CCc3ccc(NS(C)(=O)=O)cc3C2)nnc1-c1ccccc1 (as salt: HCl) [Example 84, N-[2-(3-{[4-Methyl-5-phenyl-4H-1,2,4-triazol-3-yl]sulfanyl}-propyl)-1,2,3,4-tetrahydroisoquinolin-7-yl]methansulfonamide]
73 to 75 |  |  | COc1cccc2c1CCN(CCCSc1nnc(-c3ccccc3)n1C)C2 [Example 11, 5-Methoxy-2-{3-[(4-methyl-5-phenyl-4H-1,2,4-triazol-3-yl)-sulfanyl]propyl}-1,2,3,4-tetrahydroisoquinoline]
58 to 61 |  |  | Cn1c(SCCCN2CCc3ccc(S(=O)(=O)Nc4ccccc4)cc3C2)nnc1-c1cccnc1 [Example 25, 2-{3-[(4-Methyl-5-pyridin-3-yl-4H-1,2,4-triazol-3-yl)sulfanyl]-propyl}-N-phenyl-1,2,3,4-tetrahydroisoquinoline-7-sulfonamide]
77 to 81 |  |  | Cc1ncsc1-c1nnc(SCCCN2CCc3ccc(S(=O)(=O)Nc4ccccc4)cc3C2)n1C [Example 26, 2-(3-{[4-Methyl-5-(4-methyl-1,3-thiazol-5-yl)-4H-1,2,4-triazol-3-yl]sulfanyl}propyl)-N-phenyl-1,2,3,4-tetrahydroisoquinoline-7-sulfonamide]
138 to 139 |  |  | Cn1c(SCCCN2CCc3cc(Cl)c(Cl)cc3C2)nnc1-c1ccccc1 [Example 28, 6,7-Dichloro-2-{3-[(4-methyl-5-phenyl-4H-1,2,4-triazol-3-yl)-sulfanyl]propyl}-1,2,3,4-tetrahydroisoquinoline]
96 to 100 |  |  | Cn1cccc1-c1nnc(SCCCN2CCc3ccc(S(=O)(=O)N4CCCCC4)cc3C2)n1C [Example 35, 2-(3-{[4-Methyl-5-(1-methyl-1H-pyrrol-2-yl)-4H-1,2,4-triazol-3-yl]sulfanyl}propyl)-7-(piperidin-1-ylsulfonyl)-1,2,3,4-tetrahydroisoquinoline]
99 to 100 |  |  | Cn1c(SCCCN2CCc3cc(Cl)ccc3C2)nnc1-c1ccsc1 [Example 39, 6-Chloro-2-{3-[(4-methyl-5-thien-3-yl-4H-1,2,4-triazol-3-yl)-sulfanyl]propyl}-1,2,3,4-tetrahydroisoquinoline]
75 to 76 |  |  | Cn1c(SCCCN2CCc3ccc(S(=O)(=O)N4CCCC(C)(C)C4)cc3C2)nnc1-c1ccccc1 [Example 49, 7-[(3,3-Dimethylpiperidin-1-yl)sulfonyl]-2-{3-[(4-methyl-5-phenyl-4H-1,2,4-triazol-3-yl)sulfanyl]propyl}-1,2,3,4-tetrahydroisoquinoline]
